Assays:
[1] = test system: VDAC1 expression in INS-1 cells; assay: VDAC1 expression in INS-1 cells cultured at 5 or 20 mM glucose; type: cell-based, rat; details: INS-1 cells cultured 72 h at 20 mM glucose; VDAC1ab 10 nM, metformin, AKOS, VBIT-4 20 μM each (FIG. 4l, 4m)
Method: INS-1 832/13 cells (kindly donated by Dr. C. B. Newgaard, Duke University, USA) were cultured in RPMI-1640 containing 11.1 mM D-glucose and supplemented with 10% fetal bovine serum, 100 U/ml penicillin (Gibco), 100 µg/ml streptomycin (Gibco), 10 mM HEPES, 2 mM glutamine, 1 mM sodium pyruvate, and 50 µM β-mercaptoethanol (Sigma), at 37° C. in a humidified atmosphere containing 95% air and 5% CO2. For VDAC1 over-expression by VDAC1 plasmid (1 μg/ml) and VDAC2 down-regulation by and siRNA, INS1 832/13 cells were cultured to 60% confluence. To study the long-term effects (24-72 h) of high glucose (20 mM) (glucotoxicity) compared to basal glucose (5 mM), INS-1 832/13 cells were cultured with RPMI 1640 complete media (Ahmed, M., et al., 2010. Islets 2, 283-292) in the presence or absence of indicated agents and thereafter VDAC1 expression, cell viability and function was measured.
Total RNA from handpicked mouse islets, human donor islets (Diabetic and non-diabetic) or INS1 832/13 cells were extracted using RNAeasy (Qiagen, Hilden, Germany). RNA ([…]) was used for cDNA synthesis with SuperScript (Invitrogen, Carlsbad, Calif., USA). Concentration and purity of total RNA was measured with a NanoDrop ND-1000 spectrophotometer (A260/A280>1.9 and A260/A230>1.4) (NanoDrop Technologies, Wilmington, Del.) and RNA Quality Indicator (RQI) higher than 8.0 (Experion Automated Electrophoresis, Bio-Rad, USA) was considered to be high-quality total RNA preparations. A 10 μl of reaction mixture with 20 ng cDNA, 5 μl TaqMan mastermix (Applied Biosystems, Foster City, Calif., USA), and 100 nM TagMan gene expression assay were run in a 7900HT Fast Real-Time System (Applied Biosystems). The qPCR was carried out as follows: 50° C. for 2 minutes, 95° C. for 10 minutes, 40 cycles of 95° C. for 15 seconds, and 60° C. for 1 minute. The amount of mRNA was calculated relative to the amount of housekeeping genes (GAPDH, PPIA or HPRT) mRNA in the same sample by the formula X0/R0=2CtR-CtX, where X0 is the original amount of mRNA for the gene of interest, R0 is the original amount of HPRT mRNA, CtR the Ct value for HPRT, and CtX the Ct value for the gene of interest. Primer sequences are provided upon request.

db/db mice [2] = assay: Daily i.p. injection of VBIT-4 in db/db and C57/BL mice (blood glucose, IPGTT); type: in vivo, mouse
Method: 5 weeks old db/db mice and control (C57/bl) (Janvier Laboratory, France), weighing 18-25 g, were used throughout the experiments. They were given a standard pellet diet (B&K) and tap water ad libitum. The experimental procedures were approved by the Ethics Committee for Animal Research at Lund University. Isolation of pancreatic islets was performed by retrograde injection of a collagenase solution via the bile-pancreatic duct and islets were then collected under a stereomicroscope at room temperature.
IPGTTs were performed in db/db and c57/bl mice after treatment with VDAC1 blocker (daily intraperitoneal injection with VBIT-4, […]) for 5 weeks. Prior to IPGTT test, the mice were fasted for 4 h. Glucose was dissolved in 0.9% NaCl and 2.0 g glucose/kg body weight was injected intraperitoneally. Serial blood sampling thereafter from vena saphena was performed at 0, 5, 15, 30 and 90 min as previously described elsewhere 35. Blood glucose was analyzed using glucose oxidase method and plasma insulin was analyzed by ELISA (Salehi, A. et al. 2008. PLoS ONE 3, e2165; Rosengren, A. H. et al. 2010. Science 327, 217-220). Total volume load was 0.3 ml. The Cumulative (area under the curve) changes in plasma glucose or insulin were calculated by subtracting the recorded values from basal (time 0).

[3] = test system: VDAC1 mRNA in human islets; assay: VDAC1 mRNA in non-diabetic human islets cultured under glucotoxic condition; type: cell-based; details: 72 h at 20 mM glucose, metformin 20 μM (FIG. 1d)
Method: Total RNA from handpicked mouse islets, human donor islets (Diabetic and non-diabetic) or [MUT] cells were extracted using RNAeasy (Qiagen, Hilden, Germany). […] Concentration and purity of total RNA was measured with a NanoDrop ND-1000 spectrophotometer (A260/A280>1.9 and A260/A230>1.4) (NanoDrop Technologies, Wilmington, Del.) and RNA Quality Indicator (RQI) higher than 8.0 (Experion Automated Electrophoresis, Bio-Rad, USA) was considered to be high-quality total RNA preparations. […] The qPCR was carried out as follows: 50° C. for 2 minutes, 95° C. for 10 minutes, 40 cycles of 95° C. for 15 seconds, and 60° C. for 1 minute. […] VDAC1 and VDAC2 mRNA and protein level were investigated by both qPCR and Western blotting relative to the expression of GAPDH and β-actin respectively.

human ND islets = assay: GSIS in non-diabetic human islets cultured at 5 or 20 mM glucose; type: cell-based
Description: Human pancreatic islets were obtained through collaboration between Human Tissue Laboratory within Lund University Diabetes Centre (LUDC) and the Nordic Network for Clinical Islet Transplantation (Prof. Olle Korsgren, Uppsala University, Sweden). Donors were grouped according to HbA1c i.e. less than 6% (ND), between 6% and 6.5% (IGT), higher than 6.5% or history of diabetes (T2D). The human islets (70-90% purity) had been cultured in CMRL 1066 (ICN Biomedicals, Costa Mesa, Calif.) supplemented with 10 mM HEPES, 2 mM L-glutamine, […] gentamicin, […] fungizone (Gibco, BRL, Gaithersburg, Md.), 20 μg/ml ciprofloxacin (Bayer Healthcare, Leverkusen, Germany) and 10 mM nicotinamide at 37° C. (5% CO2) for 1 to 5 days prior to the arrival in the laboratory. The islets were then hand-picked under stereomicroscope prior to use. All procedures using human islets were approved by the ethical committees at Uppsala and Lund Universities, Sweden.
Human pancreatic islets were collected under a stereomicroscope at room temperature and cultured at 5.5 or 20 mM glucose in the absence or presence of test agents for 72 h. Thereafter the islets were washed and preincubated for 30 min at 37° C. in Krebs Ringer bicarbonate buffer, pH 7.4, supplemented with N-2 hydroxyethylpiperazine-N′-2-ethanesulfonic acid (10 mM), 0.1% bovine serum albumin, and 1 mM glucose. […]

[4] = test system: VDAC1 in islets from T2D donors; assay: VDAC1 expression and localization in islets of T2D donors with documented metformin therapy; set-up: species or system human
Method: Donors were grouped according to HbA1c i.e. less than 6% (ND), between 6% and 6.5% (IGT), higher than 6.5% or history of diabetes (T2D). […] The islets were then hand-picked under stereomicroscope prior to use. […] Total RNA from handpicked mouse islets, human donor islets (Diabetic and non-diabetic) or [MUT] cells were extracted using RNAeasy (Qiagen, Hilden, Germany). […] Concentration and purity of total RNA was measured with a NanoDrop ND-1000 spectrophotometer (A260/A280>1.9 and A260/A230>1.4) (NanoDrop Technologies, Wilmington, Del.) and RNA Quality Indicator (RQI) higher than 8.0 (Experion Automated Electrophoresis, Bio-Rad, USA) was considered to be high-quality total RNA preparations. […] The qPCR was carried out as follows: 50° C. for 2 minutes, 95° C. for 10 minutes, 40 cycles of 95° C. for 15 seconds, and 60° C. for 1 minute. […] Isolated human or mouse islets as well as INS-1 cells were seeded on the glass-bottom dish cultured overnight. […] Primary antibodies against mouse VDAC1 (Abcam), goat VDAC2 (Abcam) and Guinea pig insulin (Eurodiagnostica) were diluted in blocking buffer and incubated overnight at 4° C. Immunoreactivity was quantified using fluorescently labeled secondary antibodies (1:200) and visualized by confocal microscopy (Carl Zeiss, Germany). The ratio is calculated by mean intensity of plasma membrane to mean intensity in cytosol, according to the formula:

db/db mice [5] = details: Cao K, et al. 2014; cited from earlier work

## O=C(CC(CO)N1CCN(c2ccc(OC(F)(F)F)cc2)CC1)Nc1ccc(Cl)cc1 (racemic) [VBIT-4, N-(4-chlorophenyl)-4-hydroxy-3-(4-(4-(trifluoromethoxy)phenyl)-piperazin-1-yl)butanamide]
[1]
  glucose evoked VDAC1 upregulation (total VDAC1 expression): abrogated the glucose evoked VDAC1 upregulation
db/db mice [2]; 14-week old db/db animals with severe diabetes, data not shown
  effects in animals with severe diabetes: only marginal effects
db/db mice [2]; C57/BL mice, daily i.p. VBIT-4 from age 6 to 11 weeks
  effects in control mice: no effects
db/db mice [2]; db/db mice after 5 weeks VBIT-4 i.p. (FIG. 7g, 7h)
  glucose tolerance (IPGTT, 2 g/kg): markedly improved
db/db mice [2]; db/db mice after 5 weeks VBIT-4 i.p. (FIG. 7i, 7k, 7l)
  GSIS in vivo and in isolated islets: markedly improved
db/db mice [2]; db/db mice followed after 5 weeks treatment (FIG. 7f)
  blood glucose concentrations upon VBIT-4 cessation: rose gradually over several weeks
db/db mice [2]; db/db mice, daily i.p. 25 mg/kg from age 6 to 11 weeks, vs vehicle (FIG. 7f)
  development of hyperglycemia (blood glucose): prevented the development of the severe hyperglycemia
db/db mice [2]; db/db mice, early administration, data not shown
  water consumption and urine production: prevented increases in water consumption and urine production

## CN(C)C(=N)N=C(N)N [metformin]
[1]
  glucose evoked VDAC1 upregulation (total VDAC1 expression): abrogated the glucose evoked VDAC1 upregulation
[3]
  VDAC1 mRNA: prevented the increase in VDAC1 mRNA
Human ND islets; 72 h culture with agent (FIG. 6d)
  GSIS after culture at 5 mM glucose: unaffected
Human ND islets; 72 h culture with agent, then 1 h at 1G or 16.7G (FIG. 6d)
  GSIS after culture at 20 mM glucose: prevented the attenuation of GSIS
[4]; islets from T2D donors with documented metformin therapy (n=4)
  islet VDAC1 mRNA: did not display elevated VDAC1 mRNA
[4]; single examined T2D donor with documented metformin therapy (FIG. 3a, 3b)
  VDAC1 localization in β-cells: remained intracellular
db/db mice [5]
  severity of hyperglycemia at onset of the disease: attenuates the severity of hyperglycemia
